Measured values from publication PMC6006164, “Natural cyclopeptide RA-V inhibits the NF-κB signaling pathway by targeting TAK1” (Cell Death & Disease, 2018).

How the values were obtained:
[1] = tested on: p65 nuclear translocation; experiment: Immunofluorescence assay of p65 nuclear translocation; assay type: cell-based; details: HeLa; 200 nM RA-V 6 h, 10 ng/mL TNF-α 15 min
[2] = tested on: p65 phosphorylation and IκBα phosphorylation; experiment: Western blot in HEK293T cells transfected with TRAF2, MyD88 or IKKβ; assay type: cell-based; details: RA-V 48 h
Description: To determine where RA-V acts in this pathway, TRAF2, MyD88, IKKβ, or p65 plasmid was transiently transfected into HEK293T cells together with the 5 × κB-lucieferase and pTK-Renilla reporters. […] Western blots were performed to investigate the effect of RA-V on NF-κB-associated proteins in HEK293T cells transfected with the TRAF2, MyD88, or IKKβ plasmid. […] Moreover, we used a computational method to predict where RA-V is likely to act in this pathway.
Fig. 3 RA-V represses NF-κB activation upstream of the IKK protein complex. a RA-V inhibited the TRAF2- and MyD88-induced expression of the NF-κB reporter in a dose-dependent manner. The indicated plasmids were transfected into HEK293T cells together with the 5 × κB-luciferase and pTK-Renilla reporters. Twenty-four hours after transfection, the cells were incubated with various concentrations of RA-V for 48 h before luciferase assays were performed. b RA-V inhibited TRAF2- and MyD88-induced p65 phosphorylation and IκBα phosphorylation in a dose-dependent manner. […]
For western blot analysis, the samples were equally subjected to sodium dodecyl sulfate polyacrylamide gel electrophoresis (SDS-PAGE) and transferred to polyvinylidene difluoride membranes (Millipore). […] The protein bands were detected with the SuperSignal West Pico Chemiluminescent Substrate (Pierce).

HCT116 xenograft tumors = experiment: HCT116 xenograft in nude mice; assay type: in vivo, female athymic nude BALB/c mice
Description: Fig. 7 RA-V inhibits tumor growth and the expression of NF-κB target genes in a nude xenograft model. a–d Inhibition of the growth of HCT116 and HepG2 xenograft tumors by RA-V. Female athymic nude BALB/c mice bearing HCT116 (n = 8) or HepG2 (n = 7) xenograft tumors were intravenously injected with various concentrations of RA-V micelles or control micelles every other day. 5-FU (10 mg/kg) group as positive control. Effects of RA-V on the growth curves of subcutaneoue xenografts of HCT116 (a) and HepG2 (b) and effects on the tumor weight in the HCT116 (c) and HepG2 (d) models. e–f Tumors removed were photographed. g–h The expression of the NF-κB target genes, IL-8, MCP-1, and CXCL-1, in HCT116 (g) and HepG2 (h) tumor tissue from vehicle- and various concentrations of RA-V-treated group was determined by quantitative RT-PCR and normalized to GADPH expression. *, p < 0.05; **, p < 0.01; ***, p < 0.001
In total, 2 × 10^6 HCT116 or 3 × 10^6 HepG2 cells were subcutaneously injected into the right dorsal flank of 6- to 8-week-old female athymic nude BALB/c mice. After tumor volumes reached 100 mm^3, the tumor-bearing mice were randomly divided into several groups. The mice bearing HCT116 (n = 8) or HepG2 xenograft tumors (n = 7) were received the intravenous injection of vehicle micelles or various concentrations of RA-V micelles every other day. 5-FU (10 mg/kg) group as positive control. Body weights and tumor volumes were recorded every other day. Tumor volumes were calculated using the following formula: tumor volume (mm^3) = 0.52 × length × width^2. At the end of the experiments, the mice were killed. Tumor xenografts of each mouse were removed and weighed. Part of each tumor tissue was stored at liquid nitrogen for quantitative RT-PCR analysis. […] Serum alanine transaminase(ALT), aspartate transaminase(AST), and creatine kinase(CK) were determined using relevant kits (Nanjing Jiancheng) according to the manufacturer’s specific instructions.

[3] = HCT116, n = 8, RA-V micelles i.v. every other day, vs control

Q: How did the “TNF-α-induced p65 nuclear translocation” value [1] turn out when RA-V was run?
A: significantly blocked

Q: And the “p65 and IκBα phosphorylation in cells transfected with IKKβ plasmid” value [2]?
A: no effect

Q: What about the “p65 phosphorylation and IκBα phosphorylation in cells overexpressing TRAF2 or MyD88” value [2] of the same substance?
A: dose-dependently inhibited

Q: And the “tumor growth rate (tumor volume)” value (HCT116 xenograft tumors; [3])?
A: significantly reduced

Q: What about the tumor weight (HCT116 xenograft tumors; [3]) of the same substance?
A: obviously lower

Q: And the “expression of IL-8, MCP-1, and CXCL-1 in tumor tissue” value (HCT116 xenograft tumors; HCT116 xenograft, quantitative RT-PCR)?
A: remarkable decreased
